Assay results taken from PMC11050599, “Novel Tetracyclic Azaphenothiazines with the Quinoline Ring as New Anticancer and Antibacterial Derivatives of Chlorpromazine” (International Journal of Molecular Sciences, 2024).
≈ marks a conversion by molar mass, not a printed value. Where two headings read alike, the source gives them in different places.

How the values were obtained:
A549 (lung cancer) = test: MTT assay, A549 cells; assay type: cell-based, human; conditions: for IC50: MTT, 72 h, mean SD, read-out: IC50 A549; for SI A549: SI = IC50 for normal cell line (HaCaT)/IC50 cancer cell line
Method: (§1) The human cell lines, such as A549 (lung cancer), MDA-MB-231 (breast cancer), MiaPaca-2 (pancreatic cancer), PC3 (metastatic prostate cancer), HCT-116 (colon carcinoma), and HaCaT (immortalized keratinocytes), were sourced from the American Type Culture Collection (ATCC) in Rockville, USA. Culturing conditions varied as follows: HCT116 cells were cultured in MEM (ThermoSci, Waltham, MA, USA), A549, MDA-MB-231, MiaPaca, HaCaT cells in DMEM High Glucose and PC3 cells were cultured in RPMI (Biowest SAS, Nuaillé, France). The growth medium consisted of 10% fetal bovine serum (FBS, Sigma-Aldrich, St. Louis, MO, USA), 20 mM HEPES (Biowest, Nuaillé, France), and antibiotics (100 U/mL of penicillin and 100 μg/mL of streptomycin) from Gibco, Grand Island, NY, USA. […] These compounds were added to 96-well plates containing study cells (1 × 10^4 cells per well) and incubated for 72 h. […] Cell absorbance results were incorporated into the formula for calculating the relative MTT level (%), enabling the assessment of cell viability following exposure to the test compounds. The cell viability percentage represents the MTT reduction in cells treated with the test compounds compared to the control sample, where only the medium was added to the cells.

[1] = tested on: MDA-MB-231 (breast cancer); test: MTT assay, MDA-MB-231 cells; assay type: cell-based, human; conditions: for IC50: MTT, 72 h, MDA-MB231, read-out: IC50 MDA; for SI MDA: SI = IC50 for normal cell line (HaCaT)/IC50 cancer cell line
Method: as §1

[2] = tested on: HaCaT (immortalized human keratinocytes); test: MTT assay, HaCaT normal cells; assay type: cell-based; conditions: MTT, 72 h, normal cells, read-out: IC50 HaCaT (Table 3)
Method: as §1

E. coli ATCC 25922 = test: MIC broth microdilution; assay type: cell-based; conditions: 19 h, 35 °C; for MIC: Escherichia coli, ATCC25922, read-out: MIC E. coli ATCC 25922
Text: (§2) To evaluate the antibacterial effectiveness of chloroquinobenzothiazine derivatives, various bacterial strains from international microbe collections such as the American Type Culture Collection (ATCC) and the National Collection of Type Culture (NCTC) were examined, alongside a panel of clinical rods. This included two Gram-negative organisms, E. coli ATCC 25922 and P. aeruginosa ATCC 15442, and a series of six Gram-positive strains: S. aureus NCTC 4163; S. aureus ATCC 29213, 25923, and 6538; and S. epidermidis ATCC 12228 and 35984. […] The MIC was determined using the two-fold serial broth microdilution method in 96-well microtitration plates containing Mueller-Hinton II broth medium (Becton Dickinson, Franklin Lakes, NJ, USA). The final inoculum for all tested bacteria was adjusted to […] (colony-forming units per milliliter). The stock solution of the tested compounds was prepared in dimethyl sulfoxide (DMSO) and diluted to a maximum of 1% solvent content with a sterile medium.

P. aeruginosa ATCC 15442 = test: MIC broth microdilution; assay type: cell-based; conditions: 19 h, 35 °C; for MIC: Pseudomonas aeruginosa, ATCC15442, read-out: MIC P. aeruginosa ATCC 15442
Text: as §2

S. aureus ATCC 25923 = test: MIC broth microdilution; assay type: cell-based; conditions: 19 h, 35 °C; for MIC: Staphylococcus aureus, ATCC25923, read-out: MIC S. aureus ATCC 25923
Text: as §2

S. aureus ATCC 29213 = test: MIC broth microdilution; assay type: cell-based; conditions: 19 h, 35 °C; for MIC: Staphylococcus aureus, ATCC29213, read-out: MIC S. aureus ATCC 29213
Text: as §2

S. aureus ATCC 6538 = test: MIC broth microdilution; assay type: cell-based; conditions: 19 h, 35 °C; for MIC: Staphylococcus aureus, ATCC6538, read-out: MIC S. aureus ATCC 6538
Text: as §2

S. aureus NCTC 4163 = test: MIC broth microdilution; assay type: cell-based; conditions: 19 h, 35 °C; for MIC: Staphylococcus aureus, NCTC4163, read-out: MIC S. aureus NCTC 4163
Text: as §2

[3] = tested on: S. epidermidis ATCC 12228; test: MIC broth microdilution; assay type: cell-based; conditions: 19 h, 35 °C; for MIC: Staphylococcus epidermidis, ATCC12228, read-out: MIC S. epidermidis ATCC 12228
Text: as §2

[4] = tested on: S. epidermidis ATCC 35984; test: MIC broth microdilution; assay type: cell-based; conditions: 19 h, 35 °C; for MIC: Staphylococcus epidermidis, ATCC35984, read-out: MIC S. epidermidis ATCC 35984
Text: as §2

Compound | SI A549 (A549 (lung cancer)) | SI MDA [1] | IC50 (A549 (lung cancer); Homo sapiens, A549) [µM] | IC50 ([1]; Homo sapiens, MDA-MB-231) [µM] | IC50 ([2]; Homo sapiens, HaCaT) [µM] | MIC (E. coli ATCC 25922) [µg/mL] | MIC (P. aeruginosa ATCC 15442) [µg/mL] | MIC (S. aureus ATCC 25923) [µg/mL] | MIC (S. aureus ATCC 29213) [µg/mL] | MIC (S. aureus ATCC 6538) [µg/mL] | MIC (S. aureus NCTC 4163) [µg/mL] | MIC [3] [µg/mL] | MIC [4] [µg/mL] | further results
8-Chloro-6-[(1-(4-chlorobenzyl)-1H-1,2,3-triazol-4-yl)methyl]-quinobenzo[1,4]thiazine [Compound 31] | 1.0 | 1.0 | – | – | – | – | – | – | – | – | – | – | – | IC50 (A549 (lung cancer)): > 100 µM; IC50 [1]: > 100 µM; IC50 [2]: > 100 µM; MIC E. coli ATCC 25922 (E. coli ATCC 25922): >256 µg/mL; MIC P. aeruginosa ATCC 15442 (P. aeruginosa ATCC 15442): >256 µg/mL; MIC S. aureus ATCC 25923 (S. aureus ATCC 25923): >256 µg/mL; MIC S. aureus ATCC 29213 (S. aureus ATCC 29213): >256 µg/mL; MIC S. aureus ATCC 6538 (S. aureus ATCC 6538): >256 µg/mL; MIC S. aureus NCTC 4163 (S. aureus NCTC 4163): >256 µg/mL; MIC S. epidermidis ATCC 12228 [3]: >256 µg/mL; MIC S. epidermidis ATCC 35984 [4]: >256 µg/mL
8-Chloro-6-[(1-benzyl-1H-1,2,3-triazol-4-yl)-methyl]-quinobenzo[1,4]thiazine [Compound 29] | 1.0 | 1.0 | – | – | – | – | – | – | – | – | – | – | – | IC50 (A549 (lung cancer)): > 100 µM; IC50 [1]: > 100 µM; IC50 [2]: > 100 µM; MIC E. coli ATCC 25922 (E. coli ATCC 25922): >256 µg/mL; MIC P. aeruginosa ATCC 15442 (P. aeruginosa ATCC 15442): >256 µg/mL; MIC S. aureus ATCC 25923 (S. aureus ATCC 25923): >256 µg/mL; MIC S. aureus ATCC 29213 (S. aureus ATCC 29213): >256 µg/mL; MIC S. aureus ATCC 6538 (S. aureus ATCC 6538): >256 µg/mL; MIC S. aureus NCTC 4163 (S. aureus NCTC 4163): >256 µg/mL; MIC S. epidermidis ATCC 12228 [3]: >256 µg/mL; MIC S. epidermidis ATCC 35984 [4]: >256 µg/mL
CCN(CC)CCN1c2cc(Cl)ccc2Sc2cc3ccccc3nc21 [Compound 7, 2-(8-Chloroquino[3,2-b]benzo[1,4]thiazin-6-yl)-N,N-diethylethan-1-amine] | 3.7 | 1.0 | 27.2 ± 8.4 | > 100 | > 100 | > 256 | > 256 | 8 (≈ 20.8 µM) | 8 (≈ 20.8 µM) | 8 (≈ 20.8 µM) | 8 (≈ 20.8 µM) | 8 (≈ 20.8 µM) | 8 (≈ 20.8 µM) | –
Clc1ccc2c(c1)N(CCN1CCCCC1)c1nc3ccccc3cc1S2 [Compound 10, 8-Chloro-6-(2-(piperidin-1-yl)ethyl)-quino[3,2-b]benzo[1,4]thiazine] | 1.6 | 1.0 | 63.8 ± 8.5 | > 100 | > 100 | > 256 | > 256 | > 256 | > 256 | > 256 | > 256 | > 256 | > 256 | –
CC(=O)NCCCN1c2cc(Cl)ccc2Sc2cc3ccccc3nc21 [Compound 16, N-(3-(8-Chloroquino[3,2-b]benzo[1,4]thiazin-6-yl)propyl)acetamide] | 4.1 | 1.3 | 24.6 ± 6.1 | 76.6 ± 8.9 | > 100 | > 256 | > 256 | > 256 | > 256 | > 256 | > 256 | > 256 | > 256 | –
CC(=O)NCCCCN1c2cc(Cl)ccc2Sc2cc3ccccc3nc21 [Compound 17, N-(4-(8-Chloroquino[3,2-b]benzo[1,4]thiazin-6-yl)butyl)acetamide] | 1.2 | 1.0 | 82.3 ± 6.2 | > 100 | > 100 | > 256 | > 256 | > 256 | > 256 | > 256 | > 256 | > 256 | > 256 | –
CCOC(=O)NCCCN1c2cc(Cl)ccc2Sc2cc3ccccc3nc21 [Compound 18, Ethyl(3-(8-chloroquino[3,2-b]benzo[1,4]thiazin-6-yl)propyl)carbamate] | 1.1 | 1.0 | 86.6 ± 0.8 | > 100 | > 100 | > 256 | > 256 | > 256 | > 256 | > 256 | > 256 | > 256 | > 256 | –
CCOC(=O)NCCCCN1c2cc(Cl)ccc2Sc2cc3ccccc3nc21 [Compound 19, Ethyl(4-(8-chloroquino[3,2-b]benzo[1,4]thiazin-6-yl)butyl)carbamate] | 1.0 | 1.0 | > 100 | > 100 | > 100 | > 256 | > 256 | > 256 | > 256 | > 256 | > 256 | > 256 | > 256 | –
CS(=O)(=O)NCCCN1c2cc(Cl)ccc2Sc2cc3ccccc3nc21 [Compound 22, N-(3-(8-Chloroquino[3,2-b]benzo[1,4]thiazin-6-yl)propyl)methanesulfonamide] | 1.0 | 1.0 | > 100 | > 100 | > 100 | > 256 | > 256 | > 256 | > 256 | > 256 | > 256 | > 256 | > 256 | –
